Data set [1] relates to SH-SY5Y cells. Kind of data set: MTT cell viability assay (cytotoxicity), SH-SY5Y. The method in brief:
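SH-SY5Y cells seeded at 2 × 10^4 cells/well, adhered 24 h, then exposed to compounds (1–500 μM) for 24 h at 37 °C, 5% CO2; DMSO ≤0.5% as solvent control. MTT (0.5 mg/mL) added for 3 h, formazan dissolved, absorbance read at 570 nm; ≥6 wells per concentration.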

The test system of data set [2] is bEnd3 cells. Put plainly: MTT cell viability assay (cytotoxicity), bEnd3. Format: cell-based, mouse. Particulars: 24 h, 1–500 µM. In a few lines: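 bEnd3 mouse brain endothelial cells (0.7 × 10^4/well, 24 h adherence) were exposed to compounds at 1–500 μM for 24 h, with 0.5% DMSO as solvent control. Viability was read by MTT reduction (0.5 mg/mL, 3 h, 37 °C) as absorbance at 570 nm.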

Data set [3] deals with SH-SY5Y cells. Kind of data set: H2O2-induced oxidative stress model in SH-SY5Y cells. Type of data set: cell-based, human. The conditions noted are these: H2O2 1 mM 15 min. Here is the method: The SH-SY5Y cells were seeded in 96-well plates at a density of 3.5 × 10^4/well in 100 μL of RPMI supplemented with FBS for 24 h. Then, the cell medium was aspirated, and the cells were treated with different concentrations of the compounds—1, 10, and 50 µM for 90 min. Afterwards, the SH-SY5Y cells were washed with PBS and were exposed to hydrogen peroxide (H2O2) (1 mM in PBS for 15 min) to induce oxidative stress. All well contents were replaced by fresh culture medium and incubated for 24 h. MTT assay was used to evaluate the amount of attached viable cells. Negative controls (cells without H2O2 treatment) were considered as 100% protection and H2O2-treated cells as 0% protection.
To evaluate the possible neuroprotective effects of the compounds, the SH-SY5Y cells were pre-treated with different concentrations (1, 10, 50 µM) for 90 min and then exposed to H2O2 (1 mM) for 15 min. The cell viability of all compounds was measured to verify their protective effect against the toxicity of hydrogen peroxide.

Data set [4] has as its system isolated rat-brain synaptosomes. Put plainly: Synaptosomal viability (MTT), substances administered alone. The conditions noted are these: 100 µM. Here is the method: Preparation of the synaptosomes was carried out by multiple centrifugations using the Percoll gradient. Homogenization of the brains was performed in 10 volumes of cold buffer 1, which contained 5 mM HEPES and 0.32 M sucrose (pH = 7.4), followed by centrifugation at different speeds. For preparation of the gradient, the synaptosomes were isolated by Percoll reagent. Synaptosomes were resuspended and incubated in buffer 2, which contained 290 mM NaCl, 0.95 mM MgCl2x6H2O, 10 mM KCl, 2.4 mM CaCl2xH2O, 2.1 mM NaH2PO4, 44 mM HEPES, and 13 mM D-glucose. Incubations were performed in a 5% CO2 + 95% O2 atmosphere. The method of Lowry et al., using bovine serum albumin as a standard content, was applied for determination of synaptosomal protein [51].
Synaptosomal viability was monitored based on a (3-(4,5)-dimethylthiazol-2-yl)-2,5-diphenyl tetrazolium bromide) assay. After incubation with the compounds, synaptosomes were treated with 0.5 mg/mL solution of (3-(4,5)-dimethylthiazol-2-yl)-2,5-diphenyl tetrazolium bromide) for 10 min at […]. Then, the synaptosomes were centrifuged twice at 15,000× g for 1 min. The resulting formazan crystals were dissolved in DMSO (dimethyl sulfoxide), and the extinction was determined by spectrophotometric measurements at 580–660 nm. […]

The values below come from publication PMC10135567, “New Indole-3-Propionic Acid and 5-Methoxy-Indole Carboxylic Acid Derived Hydrazone Hybrids as Multifunctional Neuroprotectors” (Antioxidants, 2023).

As to “N′-(4-Hydroxy-2-methoxybenzylidene)-3-(1H-indol-3-yl)propanehydrazide [Compound 3e]”, the IC50 in data set [1] was over 500 µM; in data set [2] it was 85.5 µM.

Turning to `COc1ccc2[nH]cc(CCNC(C)=O)c2c1` [Melatonin], the “protective effect: increased cell viability of SH-SY5Y vs. H2O2 group” value turned out to be 19% in data set [3] (1 µM pre-treatment 90 min), 42% in data set [3] (10 µM pre-treatment 90 min) and 64% in data set [3] (50 µM pre-treatment 90 min). The “reduction of synaptosomal viability (SV) vs. non-treated synaptosomes” value in data set [4] is 20%.
